# Laboratory results as given in patent US20130040813A1 (priority 2010, published 2013).
# Like-named read-outs stand apart in the source and are kept apart here.
# Columns and labels:
# Type in all cases: cell-based
# Phytophthora infestans = details: single compound, 7 days
# Pyricularia oryzae = test: microbe, parasite or virus in culture
# Botrytis cinerea = test: Microtest: activity against the grey mold pathogen Botrytis cinerea; details: single compound, 7 days; for inhibition of growth at 1 ppm / inhibition of growth at 4 ppm / inhibition of growth at 0.25 ppm: Botrytis cinerea, 168 h, read-out: Observed efficacy
# Septoria tritici = test: Microtest: activity against the wheat leaf blotch pathogen Septoria tritici; details: single compound, 7 days
# Alternaria solani = test: Microtest: activity against the early blight pathogen Alternaria solani; details: single compound, 7 days
# [1] = Pyricularia oryzae, 168 h, read-out: Observed efficacy
# [2] = Zymoseptoria tritici, 168 h, 0.063 ppm, read-out: Observed efficacy
# [3] = Zymoseptoria tritici, 168 h, 0.25 ppm, read-out: Observed efficacy
# [4] = Zymoseptoria tritici, 168 h, read-out: Observed efficacy
smiles,measurement,setting,value
"Fc1ccc(F)c2c(NCCc3ccc(Oc4cc(C(F)(F)F)ccn4)cc3)ncnc12 [Compound I-5, (5,8-Difluoro-quinazolin-4-yl)-{2-[4-(4-trifluoromethyl-pyridin-2-yloxy)-phenyl]-ethyl}-amine]",Observed efficacy,Phytophthora infestans; 1 ppm,49%
same,inhibition of growth at 0.016 ppm,Pyricularia oryzae; [1],36%
same,inhibition of growth at 0.063 ppm,Pyricularia oryzae; [1],54%
same,inhibition of growth at 0.25 ppm,Pyricularia oryzae; [1],59%
same,inhibition of growth at 1 ppm,Botrytis cinerea,14%
same,inhibition of growth at 4 ppm,Botrytis cinerea,22%
same,inhibition of growth at 0.063 ppm,Septoria tritici; [2],37%
same,inhibition of growth at 0.25 ppm,Septoria tritici; [3],40%
same,Observed efficacy,Alternaria solani; 0.25 ppm,37%
same,Observed efficacy,Alternaria solani; 1 ppm,38%
"COC(=O)N(OC)c1ccccc1COc1ccn(-c2ccc(Cl)cc2)n1 [II-14, Pyraclostrobin, reference compound]",Observed efficacy,Phytophthora infestans; 0.063 ppm,25%
same,inhibition of growth at 0.004 ppm,Pyricularia oryzae; [1],39%
same,inhibition of growth at 0.25 ppm,Botrytis cinerea; 0.25 ppm,20%
same,inhibition of growth at 0.004 ppm,Septoria tritici; [4],50%
same,Observed efficacy,Alternaria solani; 0.016 ppm,34%
"CO/C=C(/C(=O)OC)c1ccccc1Oc1cc(Oc2ccccc2C#N)ncn1 [II-1, Azoxystrobin, reference compound]",Observed efficacy,"Pyricularia oryzae; 0.004 ppm, single compound, 7 days",12%
same,Observed efficacy,Botrytis cinerea; 0.25 ppm,12%
same,Observed efficacy,Septoria tritici; 0.063 ppm,54%
same,Observed efficacy,Septoria tritici; 0.25 ppm,73%
"CON=C(C(=O)OC)c1ccccc1CON=C(C)c1cccc(C(F)(F)F)c1 [II-17, Trifloxystrobin, reference compound]",inhibition of growth at 0.016 ppm,Pyricularia oryzae; [1],24%
same,inhibition of growth at 0.25 ppm,Botrytis cinerea; 0.25 ppm,19%
same,inhibition of growth at 0.004 ppm,Septoria tritici; [4],40%
same,Observed efficacy,Alternaria solani; 0.063 ppm,48%
"COc1cc(CCNc2ncnc3c(F)cc(F)c(F)c23)ccc1Oc1cc(C(F)(F)F)ccn1 [Compound I-19, (5,6,8-Trifluoro-quinazolin-4-yl)-{2-[4-(4-trifluoromethyl-pyridin-2-yloxy)-3-methoxy-phenyl]-ethyl}-amine]",Observed efficacy,Phytophthora infestans; 1 ppm,47%
same,inhibition of growth at 0.016 ppm,Pyricularia oryzae; [1],29%
same,inhibition of growth at 0.063 ppm,Pyricularia oryzae; [1],51%
same,inhibition of growth at 0.25 ppm,Pyricularia oryzae; [1],53%
same,inhibition of growth at 4 ppm,Pyricularia oryzae; [1],71%
same,inhibition of growth at 1 ppm,Botrytis cinerea,12%
same,inhibition of growth at 4 ppm,Botrytis cinerea,15%
same,inhibition of growth at 0.063 ppm,Septoria tritici; [2],40%
same,inhibition of growth at 1 ppm,Septoria tritici; [4],41%
same,Observed efficacy,Alternaria solani; 1 ppm,40%
"Fc1ccc(F)c2c(NCCc3ccc(Oc4cc(C(F)(F)F)ncn4)cc3)ncnc12 [Compound I-3, (5,8-Difluoro-quinazolin-4-yl)-{2-[4-(6-trifluoromethyl-pyrimidin-4-yloxy)-phenyl]-ethyl}-amine]",Observed efficacy,Phytophthora infestans; 1 ppm,47%
same,inhibition of growth at 0.016 ppm,Pyricularia oryzae; [1],34%
same,inhibition of growth at 0.063 ppm,Pyricularia oryzae; [1],45%
same,inhibition of growth at 0.25 ppm,Pyricularia oryzae; [1],43%
same,inhibition of growth at 4 ppm,Pyricularia oryzae; [1],72%
same,inhibition of growth at 1 ppm,Botrytis cinerea,22%
same,inhibition of growth at 4 ppm,Botrytis cinerea,35%
same,inhibition of growth at 0.063 ppm,Septoria tritici; [2],30%
same,inhibition of growth at 0.25 ppm,Septoria tritici; [3],33%
same,Observed efficacy,Alternaria solani; 0.25 ppm,38%
same,Observed efficacy,Alternaria solani; 1 ppm,35%
"N#Cc1c(Cl)c(Cl)c(Cl)c(C#N)c1Cl [II-3, Chlorothalonil, reference compound]",inhibition of growth at 1 ppm,Botrytis cinerea,66%
"Fc1ccc(Oc2ccnc3cc(Cl)cc(Cl)c23)cc1 [II-15, Quinoxyfen, reference compound]",inhibition of growth at 16 ppm,Pyricularia oryzae; [1],9%
same,inhibition of growth at 1 ppm,Septoria tritici; [4],10%
"CC(C)CC(C)c1sccc1NC(=O)c1cn(C)nc1C(F)(F)F (stereo not shown) [II-10, Penthiopyrad, reference compound]",inhibition of growth at 0.016 ppm,"Septoria tritici; Zymoseptoria tritici, 168 h, 0.016 ppm, read-out: Observed efficacy",30%
"Cn1cc(C(=O)Nc2ccc(F)cc2-c2ccc(Cl)c(Cl)c2)c(C(F)F)n1 [II-2, Bixafen, reference compound]",Observed efficacy,Septoria tritici; 0.063 ppm,40%
"COc1cc(CCNc2ncnc3c(F)ccc(F)c23)ccc1Oc1cc(C(F)(F)F)ccn1 [Compound I-18, (5,8-Difluoro-quinazolin-4-yl)-{2-[4-(4-trifluoromethyl-pyridin-2-yloxy)-3-methoxy-phenyl]-ethyl}-amine]",Observed efficacy,Phytophthora infestans; 1 ppm,50%
same,inhibition of growth at 0.016 ppm,Pyricularia oryzae; [1],41%
same,inhibition of growth at 0.063 ppm,Pyricularia oryzae; [1],49%
same,inhibition of growth at 0.25 ppm,Pyricularia oryzae; [1],54%
same,inhibition of growth at 1 ppm,Botrytis cinerea,11%
same,inhibition of growth at 4 ppm,Botrytis cinerea,24%
same,inhibition of growth at 0.063 ppm,Septoria tritici; [2],41%
same,inhibition of growth at 0.25 ppm,Septoria tritici; [3],44%
same,inhibition of growth at 1 ppm,Septoria tritici; [4],44%
same,Observed efficacy,Alternaria solani; 0.25 ppm,43%
same,Observed efficacy,Alternaria solani; 1 ppm,44%
"COc1cc(CCNc2ncnc3c(F)ccc(F)c23)ccc1Oc1ncc(C(F)(F)F)cc1Cl [Compound I-17, (5,8-Difluoro-quinazolin-4-yl)-{2-[4-(3-chloro-5-trifluoromethyl-pyridin-2-yloxy)-3-methoxy-phenyl]-ethyl}-amine]",Observed efficacy,Phytophthora infestans; 1 ppm,42%
same,inhibition of growth at 0.063 ppm,Pyricularia oryzae; [1],14%
same,inhibition of growth at 0.25 ppm,Pyricularia oryzae; [1],36%
same,inhibition of growth at 4 ppm,Pyricularia oryzae; [1],69%
same,inhibition of growth at 1 ppm,Botrytis cinerea,4%
same,inhibition of growth at 4 ppm,Botrytis cinerea,11%
same,inhibition of growth at 0.25 ppm,Septoria tritici; [3],30%
same,inhibition of growth at 1 ppm,Septoria tritici; [4],33%
same,Observed efficacy,Alternaria solani; 1 ppm,26%
"Fc1ccc([C@]2(Cn3cncn3)O[C@H]2c2ccccc2Cl)cc1 (racemic) [II-4, Epoxiconazole, reference compound]",inhibition of growth at 0.25 ppm,Botrytis cinerea; 0.25 ppm,40%
